Here are results for 68 compounds from patent US20120165304A1, “6,7,8,9-Tetrahydro-5H-1,4,7,10a-tetraaza-cyclohept[f]indene derivatives, pharmaceutical compositions containing these compounds, their use and processes for preparing them” (BOEHRINGER INGELHEIM INTERNATIONAL GMBH, priority 2008, published 2012).

The target of the experiment is human 5-HT2C receptor (Homo sapiens, UniProt P28335, I156V/I160V/N158S). Description: cell-based.
human 5-HT2C receptor, sequence (P28335 33-458 I156V/N158S/I160V limits assumed): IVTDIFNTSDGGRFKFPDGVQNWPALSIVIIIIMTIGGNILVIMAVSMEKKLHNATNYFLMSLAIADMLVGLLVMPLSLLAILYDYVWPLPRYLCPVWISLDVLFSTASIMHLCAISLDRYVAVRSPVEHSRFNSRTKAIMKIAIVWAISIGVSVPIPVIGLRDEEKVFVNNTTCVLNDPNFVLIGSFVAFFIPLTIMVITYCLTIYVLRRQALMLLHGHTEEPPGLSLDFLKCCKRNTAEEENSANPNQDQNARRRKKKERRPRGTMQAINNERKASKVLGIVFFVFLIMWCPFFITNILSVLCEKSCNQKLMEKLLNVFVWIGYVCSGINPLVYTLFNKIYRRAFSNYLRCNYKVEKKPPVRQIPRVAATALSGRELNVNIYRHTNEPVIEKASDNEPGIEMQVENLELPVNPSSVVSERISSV
Broadly, the EC50 is the concentration needed to bring the measured effect to its halfway point. With `O=C(C1CN(c2c3c(nc4ccnn24)CCNCC3)C1)N1CCC2(CC1)OCc1ccccc12` [Example 31.153], the EC50 was 86 nM. For `COc1ccc(OC2CN(c3c4c(nc5ccnn35)CCNCC4)C2)c(F)c1` [Example 35.34] the value was 65 nM; for `Fc1ccc(Cl)c(OCC2CN(c3c4c(nc5ccnn35)CCNCC4)C2)c1` [Example 15.15], 2 nM. Then `Cn1c(C2CN(c3c4c(nc5ccnn35)CCNCC4)C2)nc2ccccc21` [Example 34.1], with 53 nM; and `O=C(C1CN(c2c3c(nc4ccnn24)CCNCC3)C1)N1CCC(OCc2ccccc2)CC1` [Example 31.199], with 48 nM.

Turning to `FC(F)(F)c1cccc(OC2CN(c3c4c(nc5ccnn35)CCNCC4)C2)n1` [Example 20.10], the concentration for a half-maximal effect (EC50) is 181 nM.

In turn, `CN1C(C)(C)CC(NC(=O)C2CN(c3c4c(nc5ccnn35)CCNCC4)C2)CC1(C)C` [Example 37.106] returned a concentration for a half-maximal effect (EC50) of 9 nM.

`O=C(N1CCOCC1)C1(c2ccccc2)CCN(c2c3c(nc4ccnn24)CCNCC3)CC1` [Example 1.54] yielded an EC50 of 1640 nM. Then `CC1CNCCc2c1nc1c(Br)cnn1c2N1CCC1` (centres unmarked) [Example 4, 10-Azetidin-1-yl-3-bromo-5-methyl-6,7,8,9-tetrahydro-5H-1,4,7,10a-tetraaza-cyclohepta[f]indene], with 679 nM. In the case of `Fc1cccc(F)c1OC1CN(c2c3c(nc4ccnn24)CCNCC3)C1` [Example 35.41], the EC50 worked out at 9 nM.

As to `COC[C@@H]1CCCN1c1c2c(nc3ccnn13)CCNCC2` [Example 1.11], the EC50 is 504 nM. For `CN(Cc1cccc(Cl)c1)C(=O)C1CN(c2c3c(nc4ccnn24)CCNCC3)C1` [Example 31.39] the value was 44 nM.

Regarding `O=C(C1CN(c2c3c(nc4ccnn24)CCNCC3)C1)N1CCC(Oc2ccc(F)c(F)c2)CC1` [Example 31.146], the response was half-maximal at 91 nM (EC50).

For the compound `Cc1cnn2c(N3CC(C(=O)N4CCC(c5ccccc5F)CC4)C3)c3c(nc12)CCNCC3` [Example 31.243], a half-maximal effect (EC50) was put at 82 nM. Then `C#CC1(NC(=O)C2CN(c3c4c(nc5ccnn35)CCNCC4)C2)CCCCC1` [Example 37.79], with 62 nM; and `O=C(NC1CCCCC1)C1CN(c2c3c(nc4ccnn24)CCNCC3)C1` [Example 37.71], with 114 nM; and `O=C(C1CN(c2c3c(nc4ccnn24)CCNCC3)C1)N1CCCC2CCCCC21` (centres unmarked) [Example 31.127], with 1280 nM.

For the compound `c1cc2nc3c(c(N4CCCCCC4)n2n1)CCNCC3` [Example 7.5], the midpoint of the response, the EC50, lay at 592 nM.

`Cc1ccc2c(c1)CCCN2C(=O)C1CN(c2c3c(nc4ccnn24)CCNCC3)C1` [Example 31.190] returned a concentration for a half-maximal effect (EC50) of 4 nM. `C#CC(C)NC(=O)C1CN(c2c3c(nc4ccnn24)CCNCC3)C1` (centres unmarked) [Example 37.109] registered an EC50 of 79 nM.

As to `O=C(C1CN(c2c3c(nc4ccnn24)CCNCC3)C1)N1CCN(c2ccccc2F)CC1` [Example 37.40], the concentration giving a half-maximal response (EC50) is 12 nM. Then `CC1C=CC(C)N1C(=O)C1CN(c2c3c(nc4ccnn24)CCNCC3)C1` (centres unmarked) [Example 31.192], with 359 nM; and `c1cncc(Cn2c(C3CN(c4c5c(nc6ccnn46)CCNCC5)C3)nc3ccccc32)c1` [Example 34.27], with 46 nM; and `Cc1cnn2c(N3CC(C(=O)N4CCC(C(F)(F)F)CC4)C3)c3c(nc12)CCNCC3` [Example 31.237], with 11 nM. Then `CN1CCc2nc3ccnn3c(N3CC(C(=O)N4CCN(C5CCCCC5)CC4)C3)c2CC1` [Example 36.54], with 97 nM; and `C=CCC1CN(C(=O)C2CN(c3c4c(nc5ccnn35)CCNCC4)C2)Cc2ccccc21` (centres unmarked) [Example 31.88], with 71 nM; and `CN1CC(NC(=O)C2CN(c3c4c(nc5ccnn35)CCNCC4)C2)C1` [Example 37.64], with 4 nM. Then `O=C(C1CN(c2c3c(nc4ccnn24)CCNCC3)C1)N1CC(F)(F)C(F)(F)C1` [Example 31.200], with 28 nM; and `O=C(C1CCCC1)N1CCN(C(=O)C2CN(c3c4c(nc5ccnn35)CCNCC4)C2)CC1` [Example 37.87], with 9 nM; and `COc1ccc(N(C)C(=O)C2CN(c3c4c(nc5ccnn35)CCNCC4)C2)cc1` [Example 31.31], with 2150 nM. Take `Cc1ccc(F)c(OCC2CN(c3c4c(nc5ccnn35)CCNCC4)C2)c1` [Example 15.5]: the 50% effective concentration (EC50) was 7 nM. `CN(Cc1nccs1)C(=O)C1CN(c2c3c(nc4ccnn24)CCNCC3)C1` [Example 31.13] came in with a half-maximal effective concentration (EC50) of 99 nM.

In turn, `O=C(C1CN(c2c3c(nc4ccnn24)CCNCC3)C1)N1C[C@@H]2C[C@H]1CN2` [Example 37.28] gave an EC50 of 6 nM.

Turning to `O=C(C1CN(c2c3c(nc4ccnn24)CCNCC3)C1)N1CCCC(F)C1` (centres unmarked) [Example 31.193], the response was half-maximal at 64 nM (EC50).

Compound `OC[C@H]1CCN1c1c2c(nc3ccnn13)CCNCC2` [Example 8.2] returned a concentration giving a half-maximal response (EC50) of 105 nM. In turn, `O=C(C1CN(c2c3c(nc4ccnn24)CCNCC3)C1)N1CCc2ccc(Br)cc2C1` [Example 31.209] displayed an EC50 of 95 nM. For `CC(=O)N1CCN(C(=O)C2CN(c3c4c(nc5ccnn35)CCN(C)CC4)C2)CC1` [Example 36.52] the value was 181 nM. Then `CN(Cc1ccccc1Br)C(=O)C1CN(c2c3c(nc4ccnn24)CCNCC3)C1` [Example 31.78], with 83 nM. In the case of `O=C(NCCC(F)(F)F)C1CN(c2c3c(nc4ccnn24)CCNCC3)C1` [Example 37.63], the response was half-maximal at 84 nM (EC50). For `O=C(NC1CCCOC1)C1CN(c2c3c(nc4ccnn24)CCNCC3)C1` (centres unmarked) [Example 37.49] the value was 44 nM.

As to `CC1(C(=O)N2CCC(c3ccccc3F)CC2)CN(c2c3c(nc4ccnn24)CCNCC3)C1` [Example 32.6], the half-maximal effective concentration (EC50) came to 2780 nM. For `CC(C)CCNC(=O)C1CN(c2c3c(nc4ccnn24)CCNCC3)C1` [Example 37.82] the value was 33 nM.

In turn, `O=C(C1CN(c2c3c(nc4ccnn24)CCNCC3)C1)N1CCC(Cc2ccccc2)CC1` [Example 31.126] registered an EC50 of 47 nM. `O=C(C1CN(c2c3c(nc4ccnn24)CCNCC3)C1)N1CCC(c2ccccc2)CC1` [Example 31.63] displayed a half-maximal effective concentration (EC50) of 31 nM. Then `C[C@H](NC(=O)C1CN(c2c3c(nc4ccnn24)CCNCC3)C1)C1CCCCC1` [Example 31.189], with 315 nM; and `O=C(C1CN(c2c3c(nc4ccnn24)CCNCC3)C1)N1CCOCC1` [Example 31.17], with 276 nM; and `CN1CCc2nc3ccnn3c(N3CC(C(=O)N4CC[C@H]5CNC[C@H]54)C3)c2CC1` [Example 36.40], with 283 nM. Then `CC(C)C(C)NC(=O)C1CN(c2c3c(nc4ccnn24)CCNCC3)C1` (centres unmarked) [Example 37.77], with 95 nM; and `COc1ccc(Cl)c(OCC2CN(c3c4c(nc5ccnn35)CCNCC4)C2)c1` [Example 15.27], with 7 nM; and `CN(Cc1ccc2ccccc2c1)C(=O)C1CN(c2c3c(nc4ccnn24)CCNCC3)C1` [Example 31.169], with 33 nM. For `O=C(C1CN(c2c3c(nc4ccnn24)CCNCC3)C1)N1CC[C@H](c2ccccc2)C1` [Example 31.224] the value was 45 nM; for `c1ccc(C2CCN2c2c3c(nc4ccnn24)CCNCC3)cc1` (centres unmarked) [Example 21, 10-(2-Phenyl-azetidin-1-yl)-6,7,8,9-tetrahydro-5H-1,4,7,10a-tetraaza-cyclohepta[f]indene], 5200 nM; for `O=C(C1CN(c2c3c(nc4ccnn24)CCNCC3)C1)N1CCC(c2ccc(Cl)cc2)CC1` [Example 31.115], 55 nM.

`c1ccc(COC2CN(c3c4c(nc5ccnn35)CCNCC4)C2)nc1` [Example 20.15] yielded an EC50 of 180 nM. For `CC(C)N1CCN(C(=O)C2CN(c3c4c(nc5ccnn35)CCNCC4)C2)CC1` [Example 37.3], it took 3 nM to reach a half-maximal effect (EC50). As to `CC(C)=CCN1CCC(NC(=O)C2CN(c3c4c(nc5ccnn35)CCNCC4)C2)CC1` [Example 43, 1-(6,7,8,9-Tetrahydro-5H-1,4,7,10a-tetraaza-cyclohept[f]inden-10-yl)-azetidine-3-carboxylic acid [1-(3-methyl-but-2-enyl)-piperidin-4-yl]-amide], the half-maximal effective concentration (EC50) is 8 nM. For `O=C(C1CN(c2c3c(nc4ccnn24)CCNCC3)C1)N1CCC2(CCCC2)CC1` [Example 31.41] the value was 58 nM; for `CC1CNCCc2nc3ccnn3c(N3CCC3)c21` (centres unmarked) [Example 5, 10-Azetidin-1-yl-9-methyl-6,7,8,9-tetrahydro-5H-1,4,7,10a-tetraaza-cyclohepta[f]indene], 570 nM. For `O=C(C1CN(c2c3c(nc4ccnn24)CCNCC3)C1)N1CCC2(CCCC2)C1` [Example 31.123] the value was 9 nM.

`O=C(C1CN(c2c3c(nc4ccnn24)CCNCC3)C1)N1CCC2(CCOC2)CC1` [Example 31.57] returned an EC50 of 37 nM. Then `O=C(C1CN(c2c3c(nc4c(Br)cnn24)CCNCC3)C1)N1CCc2ccccc2C1` [Example 31.136], with 78 nM. `Fc1ccc2[nH]c(C3CN(c4c5c(nc6ccnn46)CCNCC5)C3)nc2c1F` [Example 34.23] had a half-maximal effective concentration (EC50) of 594 nM. `CN1CCc2nc3ccnn3c(N3CC(C(=O)N4CCNC(=O)C4)C3)c2CC1` [Example 36.14] returned an EC50 of 364 nM. Then `O=C(C1CN(c2c3c(nc4ccnn24)CCNCC3)C1)N1CCc2ccc(C(F)(F)F)cc2C1` [Example 31.107], with 52 nM; and `COCCNC(=O)C1CN(c2c3c(nc4ccnn24)CCNCC3)C1` [Example 37.73], with 88 nM.

Compound `O=C(C1CN(c2c3c(nc4ccnn24)CCNCC3)C1)N1CCCCC(F)(F)C1` [Example 41, (3,3-Difluoro-perhydro-azepin-1-yl)-[1-(6,7,8,9-tetrahydro-5H-1,4,7,10a-tetraaza-cyclohept[f]inden-10-yl)-azetidin-3-yl]-methanone] yielded an EC50 of 7 nM.

In turn, `FC(F)(F)Oc1ccccc1OC1CN(c2c3c(nc4ccnn24)CCNCC3)C1` [Example 35.18] displayed a 50% effective concentration (EC50) of 636 nM.

In the case of `CN(C)CCN(C)C(=O)C1CN(c2c3c(nc4ccnn24)CCN(C)CC3)C1` [Example 36.2], the half-maximal effective concentration (EC50) was 563 nM.
